Reference: article PMC12470154, “In Vitro Evaluation of Antimicrobial Amyloidogenic Peptides for the Treatment of Early and Mature Bacterial Biofilms” (International Journal of Molecular Sciences, 2025)

Key:
MRSA (SA 180-F strain) [1] = test: Antibacterial activity in liquid medium (optical density); assay type: cell-based, methicillin-resistant Staphylococcus aureus; parameters: key to change of optical density vs negative control: ↓: Decrease in the parameter (optical density) compared to the negative control; −: No decrease in the parameter; ↑: Reverse effect (increase in the optical density compared to the control); conditions: 24 h, 37 °C; for change of optical density vs negative control: OD 595 nm
Method: (§1) To evaluate the antibacterial activity of peptides in liquid culture, a stationary-phase culture of the tested bacterial strain was diluted 100-fold in fresh medium containing peptides or gentamicin (positive control) at the specified concentrations. A total volume of 200 µL was added to each well of a 96-well round-bottom microtiter plate. After 24 h of incubation at 37 °C, the samples were transferred to a flat-bottom 96-well microtiter plate, and the optical density was measured at 595 nm. Separately, the optical density of medium containing peptides but no bacteria was measured. These values were used as baseline (zero) readings for subsequent data analysis.

S. aureus (129B strain) = test: as above; assay type: cell-based, Staphylococcus aureus; parameters: key to change of optical density vs negative control: ↓: Decrease in the parameter (optical density) compared to the negative control; −: No decrease in the parameter; ↑: Reverse effect (increase in the optical density compared to the control); conditions: 24 h, 37 °C; for change of optical density vs negative control: OD 595 nm
Method: as §1

E. coli (MG1655 strain) [2] = test: as above; assay type: cell-based, Escherichia coli; parameters: key to change of optical density vs negative control: ↓: Decrease in the parameter (optical density) compared to the negative control; −: No decrease in the parameter; ↑: Reverse effect (increase in the optical density compared to the control); conditions: 24 h, 37 °C; for change of optical density vs negative control: OD 595 nm
Method: as §1

MRSA (SA 180-F strain) [3] = test: Early biofilm formation, crystal violet staining; assay type: cell-based, methicillin-resistant Staphylococcus aureus; parameters: key: ↓: Decrease in the parameter (optical density) compared to the negative control; −: No decrease in the optical density; ↑: Reverse effect (increase in the optical density compared to the control); conditions: peptide present from inoculation, 24 h, OD 595 nm
Method: (§2) After 24 h of incubation, the medium was removed. To assess the total biofilm biomass, the wells were rinsed with sterile PBS solution and stained with 0.1% crystal violet. The dye bound to the surface was then removed using 95% ethanol. To assess the presence of metabolically active cells, 0.3% MTT (PanEco Ltd., Moscow, Russia) solution was added to each well, and the plates were incubated at 37 °C for 2 h. After incubation, the MTT solution was removed, 150 µL of DMSO (Chimmed, Moscow, Russia) and 25 µL of glycine buffer were added to each well, and the plates were left at room temperature for 15 min. The resulting solutions were transferred to a flat-bottom 96-well plate, and optical density was measured at 595 nm.

[4] = system: P. aeruginosa (2943 strain); test: Early biofilm formation, MTT assay; assay type: cell-based, Pseudomonas aeruginosa; parameters: key: ↓: Decrease in the parameter (optical density) compared to the negative control; −: No decrease in the optical density; ↑: Reverse effect (increase in the optical density compared to the control); conditions: 24 h, 0.3% MTT 2 h 37 °C, OD 595 nm
Method: as §2

MRSA (SA 180-F strain) [5] = test: Antibacterial activity on 0.7% agar (inhibition zone); assay type: cell-based, methicillin-resistant Staphylococcus aureus; parameters: key: +: The presence of a bacterial growth inhibition zone; −: The absence of a bacterial growth inhibition zone; conditions: drop on 0.7% agar, 24 h
Method: (§3) Drops of the samples were applied to the surface of solidified 0.7% agar at the concentrations indicated in Table 2 and Supplementary S2 (Figures S1–S4). After 24 h of incubation, the results were evaluated based on the presence or absence (+/−) of inhibition zones.
(§4) Once the agar solidified, drops of peptide samples at the concentrations 1, 0.1, 0.01, and 0.001 mg/mL were applied to the agar surface.

[6] = system: P. aeruginosa (2943 strain); test: as above; assay type: cell-based, Pseudomonas aeruginosa; parameters: key: +: The presence of a bacterial growth inhibition zone; −: The absence of a bacterial growth inhibition zone; conditions: drop on 0.7% agar, 24 h
Method: as §3, §4

E. coli (MG1655 strain) [7] = test: Mature biofilms, MTT assay; assay type: cell-based, Escherichia coli; conditions: mature biofilm
Method: as §2
(§5) A stationary-phase culture of the tested strain was diluted 100-fold in fresh medium (200 µL per well) and added to the wells of a 96-well round-bottom plate. […] After another 24 h, the medium was removed and the wells were rinsed with sterile PBS to eliminate planktonic cells. The procedures for assessing total biofilm biomass and cell metabolic activity using crystal violet and MTT assays were performed in the same manner as described above for early-stage biofilm experiments.

[8] = system: P. aeruginosa (2943 strain); test: Mature biofilms, MTT assay; assay type: cell-based, Pseudomonas aeruginosa; conditions: mature biofilm
Method: as §2, §5

E. coli (MG1655 strain) [9] = test: Antibacterial activity in liquid medium (optical density); assay type: cell-based, Escherichia coli; conditions: 10 mg/mL
E. coli (MG1655 strain) [10] = test: Mature biofilms, MTT assay; assay type: cell-based, Escherichia coli; parameters: key: ↓: Decrease in the parameter (optical density) compared to the negative control; −: No decrease in the parameter; ↑: Reverse effect (increase in the optical density compared to the control); conditions: mature biofilm: peptide added after 24 h, further 24 h, 0.01-10 mg/mL
Method: as §2, §5

[11] = system: P. aeruginosa (2943 strain); test: Mature biofilms, crystal violet staining; assay type: cell-based, Pseudomonas aeruginosa; parameters: key: ↓: Decrease in the parameter (optical density) compared to the negative control; −: No decrease in the optical density; ↑: Reverse effect (increase in the optical density compared to the control); conditions: mature biofilm: peptide added after 24 h, further 24 h, 0.01-10 mg/mL
Method: as §2, §5

[12] = system: P. aeruginosa (2943 strain); test: Early biofilm formation, MTT assay; assay type: cell-based, Pseudomonas aeruginosa; conditions: for bacterial metabolic activity (MTT): 10 mg/mL; for concentration given with ↓ (MTT): 24 h
Method: as §2

Sequence	concentration given with ↓ (decrease in optical density) (MRSA (SA 180-F strain) [1]) [mg/mL]	change of optical density vs negative control (MRSA (SA 180-F strain) [1])	concentration given with ↓ (decrease in optical density) (S. aureus (129B strain)) [mg/mL]	change of optical density vs negative control (S. aureus (129B strain))	change of optical density vs negative control (E. coli (MG1655 strain) [2])	change of optical density after crystal violet staining vs negative control (MRSA (SA 180-F strain) [3])	change of optical density after MTT assay vs negative control [4]	concentration given with ↓ (decrease in optical density) (E. coli (MG1655 strain) [2]) [mg/mL]	bacterial growth inhibition zone (MRSA (SA 180-F strain) [5]; 0.001 mg/mL)	bacterial growth inhibition zone (MRSA (SA 180-F strain) [5]; 0.01 mg/mL)	bacterial growth inhibition zone (MRSA (SA 180-F strain) [5]; 0.1 mg/mL)	bacterial growth inhibition zone (MRSA (SA 180-F strain) [5]; 1 mg/mL)	bacterial growth inhibition zone ([6]; 0.001 mg/mL)	bacterial growth inhibition zone ([6]; 0.01 mg/mL)	bacterial growth inhibition zone ([6]; 0.1 mg/mL)	bacterial growth inhibition zone ([6]; 1 mg/mL)	residual viability of cells (MTT) (E. coli (MG1655 strain) [7])	residual viability of cells (MTT) [8]	antimicrobial activity relative to meropenem (E. coli (MG1655 strain) [9])	change of optical density after MTT assay vs negative control (E. coli (MG1655 strain) [10])	also measured
ITDFGIFIGLGGGGSRQIKIWFQNRRMKWKK [I31K^P]	1	↓ (1 mg/mL)	0.1	↓ (0.1 mg/mL)	−	−	−														
RKKRRQRRRGGGGITDFGIFIGL [R23L^P]	0.1	↓ (0.1 mg/mL)	1	↓ (1 mg/mL)	↓ (0.1 mg/mL)			0.1	−	−	−	+	−	−	−	+	did not inhibit	did not inhibit	comparable to that of meropenem		
RKKRRQRRRGGGGVTDFGVFVEI [R23I^T, TAT cell-penetrating peptide linked via glycine linker to amyloidogenic fragment of S1 ribosomal protein of T. thermophilus]	1	↓ (1 mg/mL)		↑	↑	−	−		−	−	−	+	−	−	−	+	did not inhibit	did not inhibit		↑	change of optical density after crystal violet staining vs negative control [11]: −
RKKRRQRRRGGGGVVVHINGGKFGGGGSRQIKIWFQNRRMKWKK [R44K^S]	0.1	↓ (0.1 mg/mL)	10	↓ (10 mg/mL)	↓ (0.1 mg/mL)		−	0.1	−	−	−	+	−	−	−	+	did not inhibit	did not inhibit	comparable to that of meropenem	↑	change of optical density vs negative control (S. aureus (129B strain); listed as R44K^P): ↑; bacterial growth inhibition zone (MRSA (SA 180-F strain) [5]; 1 mg/mL, listed as R44K^P): −; bacterial growth inhibition zone ([6]; 1 mg/mL, listed as R44K^P): −; bacterial metabolic activity (MTT) [12]: reduced bacterial metabolic activity; concentration given with ↓ (MTT) [12]: 10 mg/mL; change of optical density after crystal violet staining vs negative control ([11]; listed as R44K^P): −
VTDFGVFVEIGGGGSRQIKIWFQNRRMKWKK [V31K^T, amyloidogenic fragment of S1 of T. thermophilus linked via glycine-rich linker to antennapedia peptide]	1	↓ (1 mg/mL)		−	−		−	0.1	−	−	−	−	−	−	−	−	did not inhibit	did not inhibit			change of optical density vs negative control (MRSA (SA 180-F strain) [1]; listed as V31K^S): ↓ (0.1 mg/mL); concentration given with ↓ (decrease in optical density) (MRSA (SA 180-F strain) [1]; listed as V31K^S): 0.1 mg/mL; change of optical density vs negative control (S. aureus (129B strain); listed as V31K^S): ↑; change of optical density vs negative control (E. coli (MG1655 strain) [2]; listed as V31K^S): ↓ (0.1 mg/mL); bacterial metabolic activity (MTT) [12]: reduced bacterial metabolic activity; concentration given with ↓ (MTT) [12]: 10 mg/mL; change of optical density after MTT assay vs negative control (E. coli (MG1655 strain) [10]; listed as V31K^S): ↑
